The source of these data is patent US10273240B2, “Cortistatin analogues, syntheses, and uses thereof” (President and Fellows of Harvard College, priority 2015, dated 2019).

The structures appear in SMILES notation. Read-outs that look alike come from different tables or passages of the source.

The test system of data set [1] is Smad2 T220 and Smad3 T179 phosphorylation. Description: TGF-β-stimulated Smad2 T220 and Smad3 T179 phosphorylation immunoblot. The data set is classed as cell-based, human. As to conditions: HaCaT cells. The procedure:
(§1) Kinase Assays. Data was quantified with ImageJ and plotted and fitted with GraphPad Prism 6.0. For STAT1 transactivation domain (TAD), 750 ng of GST-STAT1 TAD (residues 639-750) was incubated with ˜50 ng recombinant CDK8 module at 30° C. for 8 min in kinase buffer (25 mM Tris pH 8, 2 mM DTT, 100 μM cold ATP, 100 mM KCl, 10 mM MgCl2 and 2.5 μCi [γ-^32P] ATP (Perkin Elmer) per reaction). […] 12% SDS-PAGE gels were subsequently silver stained, exposed for 18 h on a Phosphor Screen and imaged (Typhoon 9400, GE Life Sciences). For pol II CTD, 400 ng of GST-CTD (murine sequence) was incubated with ˜40 ng recombinant CDK8 module, 25 ng TFIIH, or 40 ng P-TEFb at 30° C. for 60 min in kinase buffer. Kinase amounts were chosen to give similar total pol II CTD signal. 9% SDS-PAGE gels were silver stained and exposed as above. In vitro FLAG-CDK8 kinase assays used ˜40 ng kinase and 500 ng GST-CTD. For STAT1 or Smad2/3, cells were treated with compound for 1 h followed by IFN-γ or TGF-β1 for 1 h, then washed twice with cold PBS, and lysed (RIPA buffer with inhibitors R0278, P8340, P0044, P5762 Sigma-Aldrich). Standard immunoblotting was then performed with one immunoblot shown. All experiments were performed twice.

For a further data set, the system named is MOLM-14. Description: Cell growth assay, MOLM-14. Type of data set: cell-based. The note with it: Homo sapiens. The protocol: All media was supplemented with 100 U/mL penicillin and 100 μg/mL streptomycin. Human cancer cell lines were grown in the following media: MV4; 11, K562, MOLM-14 in RPMI-1640, 10% FBS; SKNO-1 in RPMI-1640, 10% FBS, and 10 ng/mL GM-CSF; MV4;11 and K562 were from ATCC. SKNO-1 was from DSMZ.
(§2) Cell Culture. All media was supplemented with 100 U/mL penicillin and 100 μg/mL streptomycin. Human cancer cell lines were grown in the following media: MV4; 11, RS4; 11, K562, HEL, MOLM-14, MEG-01 in RPMI-1640, 10% FBS; SET-2 in RPMI-1640, 20% FBS; UKE-1 in RPMI-1640, 10% FBS, 10% horse serum and 1 μM hydrocortisone; SKNO-1 and TF-1 in RPMI-1640, 10% FBS, and 10 or 2 ng/mL GM-CSF, respectively; HaCaT in DMEM, 10% FBS; and HCT116 in McCoy's 5 A, 10% FBS (proliferation assay) or DMEM, 10% FBS (gene expression study). HepG2, MV4;11, RS4;11, MEG-01, TF-1, HCT116 and K562 were from ATCC. SKNO-1 was from DSMZ. HEL, UKE-1, and SET-2 were provided by Ross L. Levine and HaCaT, MV4;11-mCLP, and MOLM-14 by Van Wilson, Andrew L. Kung, and Scott A. Armstrong, respectively. MOLM-14 cells were authenticated by STR profiling and flow cytometry and all cell lines were routinely tested and found to be negative for mycoplasma.

Another data set has as its system SET-2. Description: Cell growth assay, SET-2. Type of data set: cell-based. As to conditions: Homo sapiens. The protocol: as §2
The subject of a further data set is HEL. Description: Cell growth assay, HEL. Type of data set: cell-based. As to conditions: Homo sapiens, 240 h, CA, after 10 days, read-out: Mean GI50 (nM), HEL. The procedure:
as §2

Data set [2] deals with subcutaneously implanted SET-2 cells. The data set can be described thus: SET-2 subcutaneous xenotransplant model. The data set is classed as in vivo. As to conditions: SCID beige mice, IP dosing daily.
For a further data set, the target named is T1, CDK9 (P-TEFb) (Homo sapiens, UniProt P50750).
T1 construct: made in house
T1 sequence (P50750 1-345 limits assumed): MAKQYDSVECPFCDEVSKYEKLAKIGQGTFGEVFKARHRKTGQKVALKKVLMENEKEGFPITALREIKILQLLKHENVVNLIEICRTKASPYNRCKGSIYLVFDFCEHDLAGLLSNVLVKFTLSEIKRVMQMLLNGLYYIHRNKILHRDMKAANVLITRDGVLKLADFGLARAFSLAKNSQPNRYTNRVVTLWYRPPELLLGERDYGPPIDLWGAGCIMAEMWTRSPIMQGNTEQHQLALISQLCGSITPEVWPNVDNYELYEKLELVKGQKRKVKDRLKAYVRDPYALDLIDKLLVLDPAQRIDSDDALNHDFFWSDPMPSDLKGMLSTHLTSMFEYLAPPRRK
T1 sequence (O60563 1-266 partner limits assumed): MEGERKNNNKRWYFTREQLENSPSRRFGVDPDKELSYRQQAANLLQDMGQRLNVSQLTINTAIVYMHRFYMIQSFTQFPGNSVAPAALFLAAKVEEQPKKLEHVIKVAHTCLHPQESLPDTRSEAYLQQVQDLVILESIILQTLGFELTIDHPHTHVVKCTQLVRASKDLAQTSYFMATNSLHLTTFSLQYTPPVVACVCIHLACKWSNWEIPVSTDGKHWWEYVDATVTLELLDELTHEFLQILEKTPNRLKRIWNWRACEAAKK
Description: In vitro kinase assay, CDK9 (P-TEFb). The data set is classed as biochemical. The protocol:
as §1
Protein Purification. Buffers for purification and elution of recombinant proteins included 0.25 mM PMSF, 1 mM DTT, 1 mM benzamidine, and 1 mM sodium metabisulfite. […]

For the molecule `CN(C)[C@H]1C[C@@]23CC[C@@]4(O2)C(=CC[C@@]2(C)[C@@H](c5ccc6ccncc6c5)CC[C@H]24)C=C3[C@@H](O)[C@@H]1O` [CA, cortistatin A], in data set [1], the “inhibition of Smad2 T220 and Smad3 T179 phosphorylation” value is “dose-dependently inhibited”. The GI50 in the data set with MOLM-14 (MOLM-14, 240 h, CA, after 10 days, read-out: Mean GI50 (nM), MOLM-14) was 5 nM; in the data set on MOLM-14 (MOLM-14, 240 h, read-out: MOLM14 GI50 day 10), 5 nM; in the data set on MOLM-14 (MOLM-14, Table 5, read-out: GI50 (nM), MOLM-14), 5 nM; in the data set on SET-2 (SET-2, 240 h, CA, after 10 days, read-out: Mean GI50 (nM), SET-2), 4 nM; with SET-2 (SET-2, Table 5, read-out: GI50 (nM), SET2), 4 nM; in the data set on HEL, greater than 1000 nM. Moreover, the body weight result in data set [2] is reported as “no loss in body weight”. The same molecule returned a tumor volume reduction in data set [2] of 71%. Besides, on CDK9 (P-TEFb), the “inhibition of CDK9 (P-TEFb)” value is “did not inhibit”.
